Results on 5 compounds are retold here after US20220280460A1, “METHODS AND COMPOSITIONS FOR STIMULATING EXOSOME SECRETION” (UNIVERSITY OF PITTSBURGH-OF THE COMMONWEALTH SYSTEM OF …, priority 2019, published 2022).

Assay [1] concerns UMSCC47 HPV(+) head and neck cancer cells. Kind of assay: Exosome secretion by UMSCC47 cells. The assay is classed as cell-based. To be noted: for exosome production by UMSCC47 cells: total exosomal protein normalized to 10^6 cells. Here is the method: All cell lines were grown at 37° C. in the atmosphere of 5% CO2 in air. Cultures were supplemented with fetal bovine serum (FBS) depleted of exosomes by ultracentrifugation at 100,000×g for 3 h. Cells were cultured in 150 cm^2 cell culture flasks using 25 ml of culture medium. Media used for cell cultures are described in Table 1. Seeding protocol was optimized for each cell type as recently described in Ludwig N., et al., (Exp Cell Res. 2019; 378(2):149-57). After seeding, cells were allowed to attach to the flask for 6 h, were then treated with indicated reagents and incubated for 48 or 72 h as indicated.
Exosome isolation by mini-SEC: Processing of supernatants and exosome isolation by mini-SEC was performed as previously described in Ludwig et al. Briefly, cell culture supernatants were centrifuged at room temperature (RT) for 10 min at 2000×g, were transferred to new tubes for centrifugation at 10,000×g at 4° C. for 30 min and filtrated using a 0.22 μm bacterial filter. Afterwards, aliquots of supernatants were concentrated by using Vivacell 100 concentrators at 2000×g. 1 mL of concentrated supernatant was loaded on a 10 cm-long Sepharose 2-B column and individual 1 mL fractions were collected. Fraction #4 containing non-aggregated exosomes was used in subsequent assays. The established isolation technique fulfils the criteria of the MISEV2018 guidelines and therefore the term ‘exosomes’ is used.
Protein concentration: Protein concentrations were determined by using a BCA protein assay (Pierce Biotechnology, Rockford, Ill., USA) according to the manufacturer's instructions.
Tunable resistive pulse sensing (TRPS): Size distribution and concentrations of the particles in isolated exosome fractions were analyzed using tunable-resistive pulse sensing (TRPS) by qNano (Izon) as described in Ludwig N, et al., Mol Cancer Res. 2018; 16(11):1798-808.

Assay [2] has as its system Preglomerular vascular smooth muscle cells (PGVSMCs). Briefly: Exosome production by PGVSMCs from CNPase +/+ and −/− rats. The class given is cell-based, rat. Particulars: 8-Br-2′,3′-cAMP 0.3 μM; IAA/DNP 5 μM. The source says: Isolation of rat CNPASE +/+ and −/− PGVSMCs: 2′,3′-Cyclic nucleotide 3′-phosphodiesterase (CNPase) knockout rats used in this example were generated by the MCW Gene Editing Rat Resource Program. This strain was produced by injecting a CRISPR targeting the sequence […] into rat embryos. The resulting mutation was a 7 base pair deletion in exon 2. Animals were genotyped by PCR. Preglomerular vascular smooth muscle cells (PGVSMCs) were isolated from kidneys of wild type (CNPase +/+) and knockout (CNPase −/−) rats using a previously described method. Cells were cultured at 37° C. in the atmosphere of 5% CO2 in air using DMEM supplemented with exosome-depleted FBS. Exosome isolation was performed as described above.

As to `Nc1ncnc2c1ncn2[C@@H]1O[C@H](CO)[C@@H](O)[C@H]1OP(=O)(O)O` [2′-AMP], the “exosome production by UMSCC47 cells” value in assay [1] was “did not affect exosome secretion”.
Same read-out and setting: the same measure for `Nc1ncnc2c1ncn2[C@@H]1O[C@H](CO)[C@@H](OP(=O)(O)O)[C@H]1O` [3′-AMP]: “significantly stimulated exosome release”.
On to `CCCn1c(=O)c2[nH]c(-c3ccc(OCC(=O)Nc4ccc(C#N)cc4)cc3)nc2n(CCC)c1=O` [MRS 1754], for which the “effect on stimulation of exosome production by IAA/DNP” value in assay [1] (UMSCC47, in combination with IAA/DNP) is given as “significantly decreased”.
On to `Nc1ncnc2c1ncn2[C@@H]1O[C@H](CO)[C@H]2OP(=O)(O)O[C@H]21` [2′,3′-cAMP], for which, in assay [1], the “exosome production by UMSCC47 cells” value is on record as “stimulated exosome production, but only at high concentrations”.
With `Nc1ncnc2c1nc(Br)n2C1OC(CO)C2OP(=O)(O)OC21` (stereo not drawn) [8-Br-2′,3′-cAMP], the “exosome production by UMSCC47 cells” value in assay [1] is reported as “concentration-dependent increase in exosome secretion”. In addition, the “stimulation of exosome production, CNPase −/− versus CNPase +/+ PGVSMCs” value in assay [2] was “greater in CNPase −/− compared with CNPase +/+ cells”.
